Measured values as given in PubChem BioAssay AID463131 (The Scripps Research Institute Molecular Screening Center, 2010).

Target: Protein phosphatase methylesterase 1 (Homo sapiens) (UniProt Q9Y570)
Experiment: cellular PME-1 activity blockade – cell-based, fluorescence, late-stage follow-up (AID 463131)
Settings: human cells, fluorescent probe labeling of PME-1; at 0.5 µM; stronger effect = higher value

Sequence of Protein phosphatase methylesterase 1 (Homo sapiens) (Q9Y570 whole entry, looked up): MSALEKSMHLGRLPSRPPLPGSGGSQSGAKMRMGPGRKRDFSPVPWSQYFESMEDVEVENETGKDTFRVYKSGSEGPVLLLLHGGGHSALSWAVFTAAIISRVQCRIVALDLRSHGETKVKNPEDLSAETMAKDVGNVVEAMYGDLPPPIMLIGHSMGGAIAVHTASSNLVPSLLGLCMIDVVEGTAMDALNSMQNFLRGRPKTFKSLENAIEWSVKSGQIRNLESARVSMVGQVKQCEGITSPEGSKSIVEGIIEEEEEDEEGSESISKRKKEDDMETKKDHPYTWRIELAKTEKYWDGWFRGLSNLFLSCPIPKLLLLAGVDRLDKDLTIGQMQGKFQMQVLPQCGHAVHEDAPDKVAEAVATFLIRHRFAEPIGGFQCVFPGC

inhibition	SMILES
100%	COC(=O)N1C(=O)[C@](c2ccccc2)(C2CCCCC2)N1C(=O)OC
100%	COC(=O)N1C(=O)[C@](c2ccccc2)(C2CCCC2)N1C(=O)OC
